Test results as given in ChEMBL document CHEMBL1127994, “Substrate specificity of immobilized penicillin-G acylase towards penicillin and cephalosporin derivatives was studied. The phenylacetyl moiety can be altered at the -position with several small substituents. Depending on polarity and size of the substituent, enzyme activity decreases or increases. …” (Bioorg Med Chem Lett, 1994).

System: not listed separately
Assay: (§1) Hydrolysis half life using immobilized penicillin-G acylase
Assay type: ADME
Conditions: not given

Row | T1/2 | SMILES
1 | 200 min | CC1=C(C(=O)O)N2C(=O)[C@@H](NC(=O)Cc3ccccc3)[C@H]2[S+]([O-])C1 (stereo in doubt; form 1)
2 | 33 min | CC1=C(C(=O)O)N2C(=O)[C@@H](NC(=O)Cc3ccccc3)[C@H]2[S+]([O-])C1 (stereo in doubt; form 2)

System: penicillin-G acylase
Assay: as §1
Assay type: ADME
Conditions: immobilized penicillin-G acylase

Row | half-life | SMILES
3 | 50 min | C/C=C/C1=C(C(=O)O)N2C(=O)[C@@H](NC(=O)Cc3ccccc3)[C@H]2SC1
4 | 25 min | O=C(Cc1ccccc1)N[C@@H]1C(=O)N2C(C(=O)O)=CCS[C@H]12
5 | 5 min | CC1(C)S[C@@H]2[C@H](NC(=O)[C@H](N)c3ccccc3)C(=O)N2[C@H]1C(=O)O [AMPICILLIN]
6 | 7000 min | CC1(C)S[C@@H]2[C@H](NC(=O)C(Cc3ccccc3)c3ccccc3)C(=O)N2[C@H]1C(=O)O (some centres not stated)
7 | 370 min | CC1=C(C(=O)O)N2C(=O)[C@@H](NC(=O)C(Br)c3ccccc3)[C@H]2[S+]([O-])C1 (some centres not stated)
8 | 90 min | CC1(C)[C@H](C(=O)O)N2C(=O)[C@@H](NC(=O)Cc3ccccc3)[C@H]2[S+]1[O-] (some centres not stated)
9 | 65 min | CC1=C(C(=O)O)N2C(=O)[C@@H](NC(=O)Cc3ccsc3)[C@H]2SC1
10 | 80 min | CC1(C)S[C@@H]2[C@H](NC(=O)C(Br)c3ccccc3)C(=O)N2[C@H]1C(=O)O (some centres not stated)
11 | 55 min | C=CC1=C(C(=O)O)N2C(=O)[C@@H](NC(=O)Cc3ccccc3)[C@H]2SC1
12 | 1280 min | CC1=C(C(=O)O)N2C(=O)[C@@H](NC(=O)COc3ccccc3)[C@H]2SC1
13 | 25 min | CC1(C)S[C@@H]2[C@H](NC(=O)Cc3ccccc3)C(=O)N2[C@H]1C(=O)O [PENICILLIN G]
14 | > 10000 min | CC1=C(C(=O)O)N2C(=O)[C@@H](NC=O)[C@H]2[S+]([O-])C1 (some centres not stated)
15 | 3400 min | CCC(C(=O)N[C@@H]1C(=O)N2[C@@H]1SC(C)(C)[C@@H]2C(=O)O)c1ccccc1 (some centres not stated)
16 | 12 min | CC1(C)S[C@@H]2[C@H](NC(=O)[C@H](N)c3ccc(O)cc3)C(=O)N2[C@H]1C(=O)O [AMOXICILLIN]
17 | 50 min | CC1(C)[C@H](C(=O)O)N2C(=O)[C@@H](NC(=O)Cc3ccccc3)[C@H]2S1(=O)=O
18 | > 10000 min | CC1=C(C(=O)O)N2C(=O)[C@@H](NC(=O)c3ccccc3)[C@H]2SC1
19 | 50 min | Cn1nnnc1SCC1=C(C(=O)O)N2C(=O)[C@@H](NC(=O)Cc3ccccc3)[C@H]2SC1
20 | 5 min | CC1=C(C(=O)O)N2C(=O)[C@@H](NC(=O)C(O)c3ccccc3)[C@H]2SC1 (some centres not stated)
21 | 1420 min | CC1=C(C(=O)O)N2C(=O)[C@@H](NC(=O)COc3ccccc3)[C@H]2[S+]([O-])C1 (some centres not stated)

Row | SMILES | half-life
22 | CC1=C(C(=O)O)N2C(=O)[C@@H](NC(=O)Cc3ccccc3)[C@H]2SC1 | 45 min
